In patent publication US11851449B2, “Heterocyclic amide compounds having an RORvt inhibitory action” (TAKEDA PHARMACEUTICAL COMPANY LIMITED, priority 2013, dated 2023):
Read-outs that look alike come from different tables or passages of the source.

Experiments:
[1] = target: T1, RORγt (Homo sapiens, UniProt P51449); assay: RORγt binding test (TR-FRET, fluorescent-labeled cholesterol); conditions: read-out: binding inhibitory rate (%) of fluorescent-labeled cholesterol to RORγt at test compound 1 μM
T1 sequence (P51449 1-497 isoform P51449-2): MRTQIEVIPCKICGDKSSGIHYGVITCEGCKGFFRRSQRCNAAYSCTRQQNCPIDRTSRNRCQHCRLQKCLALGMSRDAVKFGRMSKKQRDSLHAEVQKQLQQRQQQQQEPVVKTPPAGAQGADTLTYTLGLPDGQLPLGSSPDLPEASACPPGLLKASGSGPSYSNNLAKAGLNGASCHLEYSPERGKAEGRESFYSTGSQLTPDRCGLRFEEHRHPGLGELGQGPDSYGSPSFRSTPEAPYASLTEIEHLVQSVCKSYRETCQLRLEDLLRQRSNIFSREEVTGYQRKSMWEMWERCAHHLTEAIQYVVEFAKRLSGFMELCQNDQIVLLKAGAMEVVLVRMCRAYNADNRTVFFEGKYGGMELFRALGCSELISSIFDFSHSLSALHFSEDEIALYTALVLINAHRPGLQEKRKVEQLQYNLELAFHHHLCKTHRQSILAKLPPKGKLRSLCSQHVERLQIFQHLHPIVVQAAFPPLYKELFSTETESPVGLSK
Outline: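 His-tagged RORγt and BODIPY-cholesterol were incubated with compound for 20 min at room temperature in Tris-HCl pH 7.5, 100 mM NaCl, 1 mM DTT and 0.1% BSA. Terbium anti-His antibody was then added for a further 20 min.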

[2] = target: T1, RORγt; assay: Cofactor recruitment test (Alpha Screen, biotinylated SRC-1 peptide); type: biochemical; conditions: read-out: signal value inhibitory rate (%) at test compound 1 μM
Method: Cofactor Recruitment Test
Cofactor recruitment test was performed by Alpha Screen (Histidine Detection Kit, PerkinElmer) method. First, a test compound was diluted with an assay buffer (50 mM Tris-HCl (pH 7.5), 50 mM KCl, 1 mM DTT, 0.1% BSA) and added to a 384 well plate by 5 μL. […] The mixture was stood in a dark place for 1 hr, and the signal value was measured by Envision (PerkinElmer).

[3] = target: T1, RORγt; assay: Jurkat reporter test (human IL-17 ROR response element luciferase reporter); type: cell-based; conditions: read-out: luminescence level inhibitory rate (%) at test compound 3 μM
Outline: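 Jurkat cells were electroporated (1350 V, 10 ms, 3 pulses) with reporter constructs, then cultured overnight with compound in RPMI containing 10% lipid-reduced FCS, 10 mM HEPES pH 7.5 and 5 μM lovastatin. Luciferase was quantified by Bright-Glo luminescence after 10 min at room temperature.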

[4] = tested on: mouse model of IL-23-induced psoriasis; assay: Effect in a mouse model of IL-23-induced psoriasis; type: in vivo; conditions: Balb/c mice, 100 mg/kg orally twice daily, versus the negative control group
Method: Effect in a Mouse Model of IL-23-Induced Psoriasis
Mouse IL-23 (500 ng/15 μL, R&D) or PBS (15 μL, negative control group) was administered intradermally in the ear of Balb/c mice (Charles River Japan, male, 7 weeks old) 5 times every other days. Seven hr after IL-23 administration at 8 days after the initial administration (final administration), the mice were anesthetized with isoflurane, and ear thickness was measured with calipers. After the ear thickness was measured, the ear was resected, the tissue 8 mm in diameter was punched from an area centering on the IL-23 injection site, and the tissue was weighed. […]
The change in ear thickness in this model was evaluated by calculating the difference in measured thickness between before IL-23 administration and 7 hr after the final IL-23 administration.
The amount of IL-17 in the ear tissue was performed as follows. […] The homogenized solution was centrifuged, and the amount of IL-17 in the supernatant was measured using ELISA kit (R&D), and the amount of protein in the supernatant was measured using pierce BCA protein assay kit (Thermo scientific). The amount of IL-17 in each ear tissue was normalized to the amount of protein, and the percent inhibition of IL-17A production with the test compound was then calculated. […]

[5] = tested on: IL-17A gene expression; assay: Effect on IL-23-induced IL-17A gene expression in mice; type: in vivo; conditions: Balb/c mice, ear tissue 24 hr after intradermal IL-23; 100 mg/kg orally 30 min before and 8 hr after IL-23; versus the negative control group
Method: Effect on IL-23-Induced IL-17A Gene Expression in Mice
A mouse IL-23 solution (500 ng/10 μL, prepared by Takeda Pharmaceutical Company Limited) or PBS (10 μL, negative control group) was administered intradermally in the ear of Balb/c mice (Charles River Japan, male, 7 weeks old). Twenty-four hr after administration, the ear was resected under isoflurane anesthesia. The test compound was suspended in 0.5% methylcellulose and administered orally 30 min before and 8 hr after IL-23 administration.
RNA extraction from the ear tissue and quantitative PCR were performed as follows. Specifically, ear tissue 5 mm in diameter was punched from an area of the resected ear centering on the IL-23 injection site, and the tissue was immersed in RNAlater (QIAGEN) for at least 18 hr. The RNAlater-treated ear tissue was homogenized in 350 μL of RLT buffer (RNeasy mini kit, QIAGEN) and treated (55° C., 10 min) with Proteinase K (QIAGEN). Total RNA was then extracted according to the RNeasy mini kit protocol. The RNA thus obtained was then reverse transcribed into cDNA using the High-Capacity RNA-to-cDNA kit (Applied Biosystems), and the amount of each cytokine expressions was measured by real-time PCR (Viia7™, Applied Biosystems). The PCR buffer used was TaqMan Fast Advanced Master Mix (Applied Biosystems), and TaqMan Gene Expression Assays (Applied Biosystems) Mm00439618 m1 (IL-17A) and 4352341E (β-actin) were used for cytokine gene detection. The IL-17A gene expression level was normalized to the β-actin gene expression level, and the percent inhibition of IL-17A gene expression with the test compound was then calculated.
The results obtained with the above-described method (percent inhibition of IL-17A gene expression with oral administration of the test compound) are shown in Table 3.

| SMILES | inhibition at 1 µM [1] | inhibition at 1 µM [2] | inhibition at 3 µM ([3]; Jurkat) | percent inhibition of ear thickness ([4]; IL-23 intradermally in the ear 5 times every other day) | percent inhibition of IL-17 production ([4]; ear tissue, ELISA normalized to protein) | percent inhibition of IL-17A gene expression [5] | inhibition at 3 µM ([3]; test compound 3 μM, Jurkat cells) |
| --- | --- | --- | --- | --- | --- | --- | --- |
| COc1ccc([C@H](C(=O)Nc2ccc([Si](C)(C)C)c(F)c2)N(C)C(=O)c2cc(O)no2)cc1 [Example 24, N-((1R)-2-((3-fluoro-4-(trimethylsilyl)phenyl)amino)-1-(4-methoxyphenyl)-2-oxoethyl)-3-hydroxy-N-methyl-1,2-oxazole-5-carboxamide] | 102% | 95.3% | 100% | 76% | 96% | 65% |  |
| COCc1ccc([C@@H](NC(=O)Cc2cc(O)no2)C(=O)Nc2ccc(C(C)(C)C)c(F)c2)cc1 [Example 106, (2R)—N-(4-tert-butyl-3-fluorophenyl)-2-(((3-hydroxy-1,2-oxazol-5-yl)acetyl)amino)-2-(4-(methoxymethyl)phenyl)acetamide] | 103% | 88% |  |  |  | 43% | 99.8% |
